Reference: ChEMBL document CHEMBL1201862, “PubChem BioAssay data set” (2004)
Calls of active or inactive are those of the source.

Assays:
[1] = THP-1 cell cytotoxicity, dose response, cytotoxicity control for non-replicating M. tuberculosis project (AID 489025); format: functional
cells = format: functional
[2] = biological target: T1, Zinc finger protein mex-5 (Caenorhabditis elegans, UniProt Q9XUB2); test: MEX-5/TCR-2 RNA interaction inhibitors, dose response, biochemical, C. elegans, fluorescence polarization (AID 1960)
T1 sequence (Q9XUB2 whole entry): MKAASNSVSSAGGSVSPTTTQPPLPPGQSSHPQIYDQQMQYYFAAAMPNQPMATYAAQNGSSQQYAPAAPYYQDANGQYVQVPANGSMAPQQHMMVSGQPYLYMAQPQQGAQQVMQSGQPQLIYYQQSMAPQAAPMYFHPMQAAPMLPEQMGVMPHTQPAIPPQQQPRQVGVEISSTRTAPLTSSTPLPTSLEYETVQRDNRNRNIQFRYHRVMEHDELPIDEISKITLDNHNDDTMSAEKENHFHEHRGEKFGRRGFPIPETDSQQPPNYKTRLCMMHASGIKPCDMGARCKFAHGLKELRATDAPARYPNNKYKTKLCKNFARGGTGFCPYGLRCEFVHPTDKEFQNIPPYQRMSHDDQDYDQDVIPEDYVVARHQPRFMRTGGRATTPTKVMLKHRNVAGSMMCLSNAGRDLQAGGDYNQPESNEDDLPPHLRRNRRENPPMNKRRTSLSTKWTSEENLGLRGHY

[3] = biological target: T2, E3 ubiquitin-protein ligase XIAP (Homo sapiens, UniProt P98170); test: Counter Screen using XIAP-Bir3 for Chemical Antagonists of Bir1/2 domains of IAP-family anti-apoptotic proteins. [Related pubchem assays (depositor defined):AID1018, AID1449, AID1514, AID1638, AID1749, AID1750, AID488957, AID488963]
T2 sequence (P98170 whole entry): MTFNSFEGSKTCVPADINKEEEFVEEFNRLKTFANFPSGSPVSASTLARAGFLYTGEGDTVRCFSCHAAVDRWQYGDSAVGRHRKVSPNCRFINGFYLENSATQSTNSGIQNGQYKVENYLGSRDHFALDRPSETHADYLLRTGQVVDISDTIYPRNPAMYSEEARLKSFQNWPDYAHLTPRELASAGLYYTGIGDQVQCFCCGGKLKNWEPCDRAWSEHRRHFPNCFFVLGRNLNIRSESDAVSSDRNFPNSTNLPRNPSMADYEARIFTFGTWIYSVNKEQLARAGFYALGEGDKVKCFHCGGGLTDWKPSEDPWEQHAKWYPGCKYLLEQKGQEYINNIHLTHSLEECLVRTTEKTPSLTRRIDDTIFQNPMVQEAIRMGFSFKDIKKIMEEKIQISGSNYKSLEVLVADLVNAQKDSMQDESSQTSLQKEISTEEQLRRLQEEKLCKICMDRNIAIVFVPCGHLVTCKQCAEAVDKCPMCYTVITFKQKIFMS

[4] = biological target: T2, E3 ubiquitin-protein ligase XIAP; test: XIAP antagonists, biochemical, IAP family, fluorescence polarization (AID 1018); format: functional
[5] = biological target: T3, RNA-binding protein pos-1 (Caenorhabditis elegans, UniProt G5EF15); test: inhibitors of POS-1/mex-3 RNA binding, dose response, biochemical, fluorescence polarization (AID 1964);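 note: purified POS-1 fused to maltose binding protein made in E. coli; potency of compounds blocking POS-1 binding to fluorescent RNA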
T3 sequence (G5EF15 whole entry): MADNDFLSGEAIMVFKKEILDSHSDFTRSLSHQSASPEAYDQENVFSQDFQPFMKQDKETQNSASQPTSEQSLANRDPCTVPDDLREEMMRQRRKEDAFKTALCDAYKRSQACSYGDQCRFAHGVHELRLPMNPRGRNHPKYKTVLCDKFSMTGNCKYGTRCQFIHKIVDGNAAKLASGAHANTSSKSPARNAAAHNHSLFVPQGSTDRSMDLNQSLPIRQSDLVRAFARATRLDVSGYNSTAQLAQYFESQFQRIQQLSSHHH

CAAX prenyl protease 2 [6] = biological target: T4, CAAX prenyl protease 2 (Homo sapiens, UniProt Q9Y256); test: human Rce1 protease inhibitors, dose response, biochemical, yeast membranes, quenched-peptide fluorescence, cherry-pick (AID 588849)
T4 sequence (Q9Y256 whole entry): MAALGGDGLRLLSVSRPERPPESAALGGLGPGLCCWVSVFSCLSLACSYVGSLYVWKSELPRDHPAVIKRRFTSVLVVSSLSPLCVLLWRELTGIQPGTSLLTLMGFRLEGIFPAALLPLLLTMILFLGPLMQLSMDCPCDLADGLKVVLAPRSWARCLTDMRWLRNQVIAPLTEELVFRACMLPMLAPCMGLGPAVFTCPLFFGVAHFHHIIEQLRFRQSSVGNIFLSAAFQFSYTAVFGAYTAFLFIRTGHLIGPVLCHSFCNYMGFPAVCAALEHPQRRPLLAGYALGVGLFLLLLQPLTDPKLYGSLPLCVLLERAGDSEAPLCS

Trypsin = Trypsin (Sus scrofa, UniProt P00761); test: porcine trypsin inhibitors, dose response, selectivity assay for Rce1 protease inhibitor project, biochemical, quenched peptide fluorescence, cherry-pick (AID 488789)
Trypsin, sequence (P00761 whole entry): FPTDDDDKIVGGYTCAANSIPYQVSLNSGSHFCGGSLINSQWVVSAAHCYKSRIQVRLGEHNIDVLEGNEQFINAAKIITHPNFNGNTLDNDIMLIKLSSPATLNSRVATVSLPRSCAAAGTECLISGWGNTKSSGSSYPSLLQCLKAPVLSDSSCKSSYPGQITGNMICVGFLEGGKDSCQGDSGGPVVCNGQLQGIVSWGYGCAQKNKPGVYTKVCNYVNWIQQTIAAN

CAAX prenyl protease 2 [7] = biological target: T5, CAAX prenyl protease 2 (Saccharomyces cerevisiae S288c, UniProt Q03530); format: biochemical
T5 sequence (Q03530 whole entry): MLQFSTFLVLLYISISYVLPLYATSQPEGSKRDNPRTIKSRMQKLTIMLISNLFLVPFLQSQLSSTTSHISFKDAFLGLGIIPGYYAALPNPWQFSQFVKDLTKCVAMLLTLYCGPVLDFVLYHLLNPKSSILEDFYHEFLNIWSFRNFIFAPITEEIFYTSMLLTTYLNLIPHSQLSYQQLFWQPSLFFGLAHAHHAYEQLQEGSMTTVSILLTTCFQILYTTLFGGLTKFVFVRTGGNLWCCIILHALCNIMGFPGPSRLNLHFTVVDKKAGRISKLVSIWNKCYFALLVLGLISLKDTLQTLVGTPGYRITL

[8] = biological target: T6, Microphthalmia-associated transcription factor (Homo sapiens, UniProt O75030); test: TRPM1 promoter luciferase signal decrease, dose response, MITF inhibitor project, cell-based, SK-MEL-5, cherry-picked, set 3 (AID 493073); format: functional
T6 sequence (O75030 whole entry): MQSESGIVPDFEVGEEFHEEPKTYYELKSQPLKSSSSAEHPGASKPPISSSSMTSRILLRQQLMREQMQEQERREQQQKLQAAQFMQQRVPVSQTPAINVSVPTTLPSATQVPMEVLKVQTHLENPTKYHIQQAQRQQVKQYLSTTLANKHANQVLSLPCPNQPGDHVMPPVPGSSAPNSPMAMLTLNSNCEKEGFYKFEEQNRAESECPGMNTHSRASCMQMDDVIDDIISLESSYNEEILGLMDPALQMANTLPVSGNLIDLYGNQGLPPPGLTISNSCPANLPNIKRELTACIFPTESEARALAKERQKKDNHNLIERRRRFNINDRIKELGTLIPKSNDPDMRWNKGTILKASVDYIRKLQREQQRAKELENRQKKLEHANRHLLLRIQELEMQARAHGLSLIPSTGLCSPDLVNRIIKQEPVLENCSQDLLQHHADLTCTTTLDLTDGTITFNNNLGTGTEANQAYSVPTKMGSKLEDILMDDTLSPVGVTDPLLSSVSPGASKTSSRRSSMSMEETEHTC

[9] = biological target: Luciferin 4-monooxygenase (Photinus pyralis, UniProt P08659); test: Counter Screen for Luciferase-based Assay Positives. [Related pubchem assays: 620, 618, 411 ]
Luciferin 4-monooxygenase, sequence (P08659 whole entry): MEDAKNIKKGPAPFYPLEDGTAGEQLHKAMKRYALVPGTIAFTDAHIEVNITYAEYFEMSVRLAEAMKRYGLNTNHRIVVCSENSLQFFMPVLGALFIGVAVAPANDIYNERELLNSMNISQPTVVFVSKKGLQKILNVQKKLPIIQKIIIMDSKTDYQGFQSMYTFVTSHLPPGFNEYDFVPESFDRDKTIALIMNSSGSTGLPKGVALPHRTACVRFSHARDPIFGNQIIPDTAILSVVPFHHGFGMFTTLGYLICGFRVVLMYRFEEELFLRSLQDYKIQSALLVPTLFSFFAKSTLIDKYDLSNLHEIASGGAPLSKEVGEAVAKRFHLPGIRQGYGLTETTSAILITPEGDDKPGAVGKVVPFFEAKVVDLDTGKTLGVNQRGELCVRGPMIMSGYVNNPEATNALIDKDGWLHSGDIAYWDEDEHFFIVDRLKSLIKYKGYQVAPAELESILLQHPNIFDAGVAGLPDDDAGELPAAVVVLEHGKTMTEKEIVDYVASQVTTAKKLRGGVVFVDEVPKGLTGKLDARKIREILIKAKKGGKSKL

[10] = biological target: Glyceraldehyde-3-phosphate dehydrogenase (Homo sapiens, UniProt P04406)
Glyceraldehyde-3-phosphate dehydrogenase, sequence (P04406 whole entry): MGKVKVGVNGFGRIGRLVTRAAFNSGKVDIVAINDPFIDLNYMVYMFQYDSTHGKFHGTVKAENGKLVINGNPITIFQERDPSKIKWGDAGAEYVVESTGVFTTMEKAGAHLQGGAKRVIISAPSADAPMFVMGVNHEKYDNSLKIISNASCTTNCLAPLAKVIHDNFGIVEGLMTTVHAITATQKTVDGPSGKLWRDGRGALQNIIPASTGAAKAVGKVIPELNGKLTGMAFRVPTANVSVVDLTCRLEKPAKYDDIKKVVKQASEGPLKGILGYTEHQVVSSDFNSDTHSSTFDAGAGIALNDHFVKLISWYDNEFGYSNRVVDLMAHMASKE

HT-1080 = test: cytotoxicity in HT1080 fibrosarcoma cells, cell-based, fluorescence readout (AID 620); format: functional; conditions: Homo sapiens
[11] = biological target: T7, Heat shock factor protein 1 (Mus musculus, UniProt P38532); test: inhibition of MG132-induced HSE-luciferase signal, confirmation, cell-based, NIH3T3, luminescence, dose retest (AID 2382); format: functional;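 note: NIH3T3 fibroblasts with HSF1-driven luciferase reporter stressed by proteasome inhibitor MG132; luminescence from HSF1-driven luciferase expression after 8 hours of MG132 stress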
T7 sequence (P38532 whole entry): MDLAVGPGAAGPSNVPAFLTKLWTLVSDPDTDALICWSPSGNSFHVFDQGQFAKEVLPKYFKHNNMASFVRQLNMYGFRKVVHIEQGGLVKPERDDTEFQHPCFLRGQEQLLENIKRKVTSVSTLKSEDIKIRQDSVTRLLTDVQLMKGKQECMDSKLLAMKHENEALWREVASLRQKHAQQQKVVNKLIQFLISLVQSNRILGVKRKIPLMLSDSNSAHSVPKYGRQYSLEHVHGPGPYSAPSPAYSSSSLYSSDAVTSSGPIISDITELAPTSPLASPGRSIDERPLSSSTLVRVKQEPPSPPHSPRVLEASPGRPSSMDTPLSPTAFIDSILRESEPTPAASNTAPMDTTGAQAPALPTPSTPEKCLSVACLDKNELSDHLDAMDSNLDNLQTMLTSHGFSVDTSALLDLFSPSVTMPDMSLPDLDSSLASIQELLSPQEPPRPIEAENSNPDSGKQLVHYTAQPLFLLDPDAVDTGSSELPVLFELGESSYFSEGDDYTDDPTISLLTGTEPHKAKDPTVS

INS1 = test: beta cell apoptosis inhibitors, cytokine rescue, dose response, luminescence, retest (AID 449756); format: functional, cell-based; conditions: Rattus norvegicus;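 note: cell death triggered by IL-1 beta plus TNF-alpha plus IFN-gamma mixture; protective hits raise ATP signal compared with cytokine alone wells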
Hexokinase HKDC1 = biological target: T8, Hexokinase HKDC1 (Homo sapiens, UniProt Q2TB90); test: HKDC1 hexokinase inhibitors, dose response, biochemical, W721R variant (AID 504729); format: functional
T8 sequence (Q2TB90 whole entry): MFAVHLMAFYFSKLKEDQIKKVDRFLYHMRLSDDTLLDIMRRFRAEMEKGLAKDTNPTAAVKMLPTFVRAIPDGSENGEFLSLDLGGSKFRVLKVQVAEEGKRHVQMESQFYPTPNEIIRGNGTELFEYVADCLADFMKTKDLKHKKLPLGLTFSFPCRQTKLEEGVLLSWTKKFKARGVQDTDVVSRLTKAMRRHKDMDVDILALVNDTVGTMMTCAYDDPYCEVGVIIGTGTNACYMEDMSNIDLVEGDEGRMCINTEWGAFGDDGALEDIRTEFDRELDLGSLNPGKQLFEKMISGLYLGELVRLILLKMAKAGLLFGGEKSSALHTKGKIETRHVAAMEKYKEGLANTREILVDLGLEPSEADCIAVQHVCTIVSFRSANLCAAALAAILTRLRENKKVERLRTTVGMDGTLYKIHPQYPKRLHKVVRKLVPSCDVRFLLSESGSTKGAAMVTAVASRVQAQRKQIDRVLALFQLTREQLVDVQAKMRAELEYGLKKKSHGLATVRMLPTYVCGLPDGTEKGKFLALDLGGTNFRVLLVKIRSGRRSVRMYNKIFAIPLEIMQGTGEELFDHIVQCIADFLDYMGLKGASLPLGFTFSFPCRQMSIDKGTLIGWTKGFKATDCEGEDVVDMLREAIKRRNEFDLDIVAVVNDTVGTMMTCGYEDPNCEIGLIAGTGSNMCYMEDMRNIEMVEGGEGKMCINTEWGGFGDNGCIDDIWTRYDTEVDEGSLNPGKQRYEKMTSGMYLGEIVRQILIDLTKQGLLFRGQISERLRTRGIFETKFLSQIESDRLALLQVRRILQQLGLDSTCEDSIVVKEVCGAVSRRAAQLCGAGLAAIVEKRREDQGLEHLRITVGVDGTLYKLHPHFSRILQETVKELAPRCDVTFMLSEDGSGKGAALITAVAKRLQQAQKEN

[12] = cytotoxicity in HPDE-C7 cells, cell-based, fluorescence, HTS (AID 430); format: functional; conditions: Homo sapiens
[13] = cytotoxicity in KRAS-transformed pancreatic duct cells, primary screen, cell-based, fluorescence, HTS (AID 431); format: functional; conditions: Homo sapiens;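 note: cell line used: HPDE-C7K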
[14] = inhibitors of intracellular T. cruzi replication, confirmation, NIH3T3 host cells, beta-gal luminescence (AID 2044); format: functional, cell-based;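 note: intracellular parasites grown in NIH/3T3 mouse fibroblasts as host cells; luminescent beta-galactosidase reporter signal from transgenic T. cruzi replicating inside host cells; inhibitors lower the luminescence signal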
[15] = control 3'UTR Renilla luciferase suppression, dose response, counter-screen for Shn3 inhibitor project, cell-based, Clone20-Shn3RL, cherry-picked (AID 624133); format: functional
[16] = cytotoxicity toward NIH3T3 fibroblasts, dose response, counter-screen, cell-based, ATP luminescence, mouse fibroblasts (AID 2010); format: functional;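 note: cells exposed to compound for about 90 hours before reading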
[17] = Shn3 3'UTR reporter inhibitors, dose response, cell-based, Clone20 osteoblasts, firefly luciferase, cherry-picked (AID 624132); format: functional;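 note: firefly luciferase luminescence from reporter carrying the Shn3 3'UTR in osteoblasts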
[18] = inhibitors of SNCA 5'UTR-driven reporter translation, confirmation, H4 neuroglioma cells, luminescence (AID 1988); format: functional, cell-based
[19] = inhibitors of firefly luciferase expression or activity, dose response, H4 neuroglioma cells, luminescence (AID 1990); format: functional, cell-based
[20] = HepG2 cell cytotoxicity, dose response, cytotoxicity control for Shn3 inhibitor project, CellTiter-Glo, cherry-picked (AID 624134); format: functional, cell-based
[21] = Luminescence Cell-Based Dose Response HTS to Identify Inhibitors of 5'UTR Stem-Loop Driven Prion Protein mRNA Translation in H4 Neuroglioblastoma Cells. [Related pubchem assays: 1827 (Project Summary), 1813 (Primary HTS)]; format: functional

SMILES: Nc1nc2ccccc2n1CCOc1ccc(Br)cc1
- CC50 [1]: 39.4 µM (active)
- IC50 (cells): 31.8 µM (active)

SMILES: Cc1cc(O)n2nc(N)c(N=Nc3ccccc3)c2n1
- EC50 [2]: 15.2 µM (active)
- IC50 [3]: > 100 µM (inactive)
- IC50 [4]: > 100 µM (not active)
- EC50 [5]: 37.8 µM (active)

SMILES: COc1ccccc1-c1coc2c(CN3CCOCC3)c(O)ccc2c1=O
- AC50 (CAAX prenyl protease 2 [6]): 11.8 µM (active)
- AC50 (Trypsin): 44.4 µM (active)
- AC50 (CAAX prenyl protease 2 [7]): 52.5 µM (active)

SMILES: Cc1cc(C(=O)Nc2cccc(C(=O)O)c2)oc1C
- AC50 [8]: 4.35 µM (active)
- EC50 [9]: < 0.2 µM (active)
- IC50 [10]: > 100 µM (not active)
- EC50 (HT-1080): > 50 µM (not active)
- EC50 [11]: 6.56 µM (active)

SMILES: Cc1cc(C)n2nc(SCc3nnc(SCc4ccccc4C)s3)nc2n1
- AC50 (INS1): 22.9 µM (active)
- IC50 (Hexokinase HKDC1): 5.17 µM (active)

SMILES: O=C(Oc1cccc2cccnc12)c1ccc2c(c1)OCCO2
- CC50 [1]: 22.8 µM (active)
- EC50 [12]: 5.8 µM (active)
- IC50 (cells): 3.9 µM (active)
- EC50 [13]: 7.02 µM (active)

SMILES: C=CCn1cc(-c2ccccc2)cc(C#N)c1=O
- AC50 (CAAX prenyl protease 2 [6]): 6.89 µM (active)
- AC50 (Trypsin): 7.96 µM (active)

SMILES: CCOC(=O)c1nc2cc3n(c(C)c-2c1C)C(C)C(CC)=C3C (stereo not drawn)
- AC50 (CAAX prenyl protease 2 [6]): 8.45 µM (active)
- AC50 (Trypsin): 7.97 µM (active)
- AC50 (CAAX prenyl protease 2 [7]): 8.32 µM (active)

SMILES: C=C(C)C1CC=C(C)/C(=N/NC(=O)CNc2ccc(C)cc2C)C1 (stereo not drawn)
- IC50 [3]: > 100 µM (inactive)
- IC50 [4]: > 100 µM (not active)

SMILES: c1ccc(CCNc2ccnc3cc4ccccc4cc23)cc1
- EC50 [14]: 1.68 µM (active)
- AC50 [15]: 3.45 µM (active)
- EC50 [16]: > 30 µM (not active)
- AC50 (CAAX prenyl protease 2 [6]): 94 µM (active)
- AC50 [17]: 1.62 µM (active)
- EC50 [18]: 7.98 µM (active)
- EC50 [19]: > 120 µM (not active)
- AC50 [20]: 8.78 µM (active)
- AC50 (Trypsin): 11.2 µM (active)
- EC50 [21]: 17.3 µM (active)
- AC50 (CAAX prenyl protease 2 [7]): 12.8 µM (active)
